Test results from patent US20110070232A1, “Combination Therapy with an Antitumor Alkaloid” (Pharma Mar, S.A., priority 2008, published 2011).
Read-outs that look alike come from different tables or passages of the source.

Legend:
[1] = tested on: HCT-116 (colon cancer) cell line; assay: IC50 determination, MIT (tetrazolium) assay, 72 h (Example 18); assay type: cell-based, human; settings: Homo sapiens; HCT-116, 72 hours of drug exposure
Protocol: HCT-116 cells were grown in McCoy's supplemented with 10% Fetal Bovine Serum (FBS), 1% penicillin/streptomycin and 2 mM L-glutamine.
Before plating, cell cultures were trypsinized and cell number estimated using an automated flow cytometer.
Cells were harvested and seeded in 96 well microtiter plates at the appropriate cell density (5,000-10,000 cells) in 150 μL of media and incubated for 24 hours to allow the cells to attach before drug addition.
After the incubation period (72 hours), 50 μL of MIT solution was added to each microtiter well and incubated for further 8 hours at 37° C. The culture medium was then removed and 50 μl, of DMSO were added to dissolve the MIT crystals. Optical densities were read at 540 nm on spectrophotometer microplate reader.
IC50 values were calculated from an average of two to four assays for each of the test agents.

MRI-H-254 tumors [2] = assay type: in vivo, mice
Protocol: (§1) Female athymic nude mice (Harlan Sprague Dawley, Madison, Wis.) were utilized for all experiments. Animals were housed in ventilated rack caging with food and water ad libitum. The mice were acclimated for at least 5 days prior to tumor implantation with tumor fragments.
Bacterial culture was taken on cells used to implant the study.
Treatments were initiated on DPI 20.
5-FU was provided in the form of injection vials which was diluted with 0.9% sterile Saline.
(§2) Tumor size measurements were recorded twice weekly from the treatment initiation until the termination of the study.
(§3) Mean, standard deviation and standard error of the mean were determined for tumor volume for all animal groups at all assessments. Student's t test was performed on tumor volumes at each measurement day, including at the end of the study, to determine whether there were any statistically significant differences between combination treatment groups and single monotherapy treatment groups.

NCI-H460 tumors = assay type: in vivo, mice; settings: PM00104 0.9 mg/kg/day IV and/or Gemcitabine 180 mg/kg/day IP
Excerpt: Female athymic nude mice (Harlan Sprague Dawley, Madison, Wis.) were utilized for all experiments. Animals were housed in ventilated rack caging with food and water ad libitum. The mice were acclimated for at least 5 days prior to tumor implantation.
The tumor model used in this study was NCI-H460 cell line which is a human NSCLC cell line obtained from the ATCC (Manassas, Va.). […] Cells from in vitro passage 9 were those implanted SC into study mice.
Treatments were initiated on DPI 8.
Tumor size measurements were recorded 2-3 times/week from the treatment initiation until the termination of the study.
as §3

BxPC-3 tumors = assay type: in vivo, mice; settings: mg/kg/day: PM00104 0.90 IV, gemcitabine 180 IP
Protocol: Female CB17.SCID mice (Charles River Lab.) were utilized for all experiments. Animals were housed in ventilated rack caging with food and water ad libitum. The mice were acclimated for at least 5 days prior to tumor implantation with a tumor cell suspension.
The tumor model used in these studies was BxPC-3 cell line, which was obtained from the ATCC (Manassas, Va.).
Bacterial cultures were performed on aliquots of the cells prepared for implantation.
Treatments were initiated on DPI 14.
as §2, §3

MRI-H-254 tumors [3] = assay type: in vivo, mice; remark: listed apart in the source
Protocol: as §1
Treatments were initiated on DPI 16.
as §2, §3

[4] = PM00104 0.90 IV, 5-FU 100 IP mg/kg/day (G2, G3, G5), DPI 20, 27, 34
[5] = day 16, PM00104 0.90, cisplatin 5, irinotecan 18, paclitaxel 25 mg/kg/day
[6] = day 20, PM00104 0.90, cisplatin 5, irinotecan 18, paclitaxel 25 mg/kg/day
[7] = day 23, PM00104 0.90, cisplatin 5, irinotecan 18, paclitaxel 25 mg/kg/day
[8] = day 26, PM00104 0.90, cisplatin 5, irinotecan 18, paclitaxel 25 mg/kg/day
[9] = day 29, PM00104 0.90, cisplatin 5, irinotecan 18, paclitaxel 25 mg/kg/day
[10] = day 33, PM00104 0.90, cisplatin 5, irinotecan 18, paclitaxel 25 mg/kg/day
[11] = day 40, PM00104 0.90, cisplatin 5, irinotecan 18, paclitaxel 25 mg/kg/day
[12] = day 48, PM00104 0.90, cisplatin 5, irinotecan 18, paclitaxel 25 mg/kg/day

## COc1c(C)cc2c(c1O)[C@@H]1[C@@H]3Cc4c(OC(C)=O)c(C)c5c(c4[C@H](CNC(=O)/C=C/c4cccc(C(F)(F)F)c4)N3[C@@H](O)[C@H](C2)N1C)OCO5 [PM00104]
[1]
  IC50: 9 nM
MRI-H-254 tumors [2]; [4]
  % T/C on day 20: 98.7%
  % T/C on day 23: 95.9%
  % T/C on day 26: 83.7%
  % T/C on day 30: 75.3%
  % T/C on day 34: 53.1%
  % T/C on day 36: 46.5%
  % T/C on day 43: 26.9%
  % T/C on day 49: 36.7%
  % T/C on day 56: 50.6%
  % T/C on day 63: 81.3%
MRI-H-254 tumors [2]; day 20, PM00104 0.9 and 5-FU 50 mg/kg/day
  % Inhibition: 1.3%
MRI-H-254 tumors [2]; day 20, PM00104 0.9 and 5-FU 100 mg/kg/day
  % Inhibition: 1.3%
MRI-H-254 tumors [2]; day 23, PM00104 0.9 and 5-FU 50 mg/kg/day
  % Inhibition: 4.1%
MRI-H-254 tumors [2]; day 23, PM00104 0.9 and 5-FU 100 mg/kg/day
  % Inhibition: 4.1%
MRI-H-254 tumors [2]; day 26, PM00104 0.9 and 5-FU 50 mg/kg/day
  % Inhibition: 16.3%
MRI-H-254 tumors [2]; day 26, PM00104 0.9 and 5-FU 100 mg/kg/day
  % Inhibition: 16.3%
MRI-H-254 tumors [2]; day 30, PM00104 0.9 and 5-FU 50 mg/kg/day
  % Inhibition: 24.7%
MRI-H-254 tumors [2]; day 30, PM00104 0.9 and 5-FU 100 mg/kg/day
  % Inhibition: 24.7%
MRI-H-254 tumors [2]; day 34, PM00104 0.9 and 5-FU 50 mg/kg/day
  % Inhibition: 46.9%
MRI-H-254 tumors [2]; day 34, PM00104 0.9 and 5-FU 100 mg/kg/day
  % Inhibition: 46.9%
MRI-H-254 tumors [2]; day 36, PM00104 0.9 and 5-FU 50 mg/kg/day
  % Inhibition: 53.5%
MRI-H-254 tumors [2]; day 36, PM00104 0.9 and 5-FU 100 mg/kg/day
  % Inhibition: 53.5%
MRI-H-254 tumors [2]; day 43, PM00104 0.9 and 5-FU 50 mg/kg/day
  % Inhibition: 73.1%
MRI-H-254 tumors [2]; day 43, PM00104 0.9 and 5-FU 100 mg/kg/day
  % Inhibition: 73.1%
MRI-H-254 tumors [2]; day 49, PM00104 0.9 and 5-FU 50 mg/kg/day
  % Inhibition: 63.3%
MRI-H-254 tumors [2]; day 49, PM00104 0.9 and 5-FU 100 mg/kg/day
  % Inhibition: 63.3%
MRI-H-254 tumors [2]; day 56, PM00104 0.9 and 5-FU 50 mg/kg/day
  % Inhibition: 49.4%
MRI-H-254 tumors [2]; day 56, PM00104 0.9 and 5-FU 100 mg/kg/day
  % Inhibition: 49.4%
MRI-H-254 tumors [2]; day 63, PM00104 0.9 and 5-FU 50 mg/kg/day
  % Inhibition: 18.7%
MRI-H-254 tumors [2]; day 63, PM00104 0.9 and 5-FU 100 mg/kg/day
  % Inhibition: 18.7%
NCI-H460 tumors
  % T/C on day 8: 103.0%
  % T/C on day 11: 98.5%
  % T/C on day 14: 85.6%
  % T/C on day 18: 90.8%
  % T/C on day 21: 81.2%
  % T/C on day 25: 76.7%
  % T/C on day 28: 77.3%
BxPC-3 tumors; day 14
  % Inhibition: −0.9%
  % T/C on day: 100.9%
BxPC-3 tumors; day 16
  % Inhibition: −40.3%
  % T/C on day: 140.3%
BxPC-3 tumors; day 19
  % Inhibition: −26.1%
  % T/C on day: 126.1%
BxPC-3 tumors; day 22
  % Inhibition: −16.5%
  % T/C on day: 116.5%
BxPC-3 tumors; day 26
  % Inhibition: 7.8%
  % T/C on day: 92.2%
BxPC-3 tumors; day 29
  % Inhibition: −6.3%
  % T/C on day: 106.3%
BxPC-3 tumors; day 34
  % Inhibition: −16.8%
BxPC-3 tumors; day 40
  % Inhibition: −26.3%
  % T/C on day: 126.3%
MRI-H-254 tumors [3]; day 16, PM00104 0.90, cisplatin 3, irinotecan 10, paclitaxel 12.5 mg/kg/day
  % Inhibition: 2.0%
MRI-H-254 tumors [3]; [5]
  % Inhibition: 2.0%
  % T/C: 98.0%
MRI-H-254 tumors [3]; day 20, PM00104 0.90, cisplatin 3, irinotecan 10, paclitaxel 12.5 mg/kg/day
  % Inhibition: 6.1%
MRI-H-254 tumors [3]; [6]
  % Inhibition: 6.1%
  % T/C: 93.9%
MRI-H-254 tumors [3]; day 23, PM00104 0.90, cisplatin 3, irinotecan 10, paclitaxel 12.5 mg/kg/day
  % Inhibition: 43.9%
MRI-H-254 tumors [3]; [7]
  % Inhibition: 43.9%
  % T/C: 56.1%
MRI-H-254 tumors [3]; day 26, PM00104 0.90, cisplatin 3, irinotecan 10, paclitaxel 12.5 mg/kg/day
  % Inhibition: 59.4%
MRI-H-254 tumors [3]; [8]
  % Inhibition: 59.4%
  % T/C: 40.6%
MRI-H-254 tumors [3]; day 29, PM00104 0.90, cisplatin 3, irinotecan 10, paclitaxel 12.5 mg/kg/day
  % Inhibition: 61.7%
MRI-H-254 tumors [3]; [9]
  % Inhibition: 61.7%
  % T/C: 38.3%
MRI-H-254 tumors [3]; day 33, PM00104 0.90, cisplatin 3, irinotecan 10, paclitaxel 12.5 mg/kg/day
  % Inhibition: 72.0%
MRI-H-254 tumors [3]; [10]
  % Inhibition: 72.0%
  % T/C: 28.0%
MRI-H-254 tumors [3]; day 40, PM00104 0.90, cisplatin 3, irinotecan 10, paclitaxel 12.5 mg/kg/day
  % Inhibition: 81.8%
MRI-H-254 tumors [3]; [11]
  % Inhibition: 81.8%
  % T/C: 18.2%
MRI-H-254 tumors [3]; day 48, PM00104 0.90, cisplatin 3, irinotecan 10, paclitaxel 12.5 mg/kg/day
  % Inhibition: 84.4%
MRI-H-254 tumors [3]; [12]
  % Inhibition: 84.4%
  % T/C: 15.6%
